Experimental data from patent US20260274857A1, “CRYSTAL OF DIHYDROPYRIDINONE DERIVATIVE OR SOLVATE THEREOF” (Shionogi & Co., Ltd., priority 2022, published 2026).

Key:
Assay type in all cases: physicochemical
[1] = Test Example 2: solid stability, 40° C. 89% RH 3 months, amount of analogous substance
Experimental: The crystal and amorphous substance of the compound represented by Formula (I) obtained in Example 1 were stored (40° C., 89% RH 3M) in a hermetically sealed container at 40° C. and a relative humidity of 89% for 3 months, and subjected to a solid stability test to evaluate the amount of an analogous substance.
The crystal or amorphous substance of the compound represented by Formula (I) obtained in Example 1 was dissolved in an acetonitrile aqueous solution (acetonitrile:water=1:1) to prepare a sample solution to be exactly 500 μg/mL.
The purity and the amount of the analogous substance were measured by an area percentage method under the HPLC conditions 1 described in Test Example 1.
The results of the crystal and amorphous substance of the compound represented by Formula (I) obtained in Example 1 are described in the following table. Impurities detected at a retention time (RT, retention time) of 17.527 minutes indicate an increase amount with respect to a standard product.

[2] = Solid stability test: storage stability (amount of analogous substance by HPLC, appearance); details: temperature, temperature and humidity conditions, light irradiation; analogous substance by HPLC and appearance
Experimental: For the solid stability of the crystal of the compound represented by Formula (I) obtained in Example 1 and the crystal of the compound represented by Formula (II) obtained in Example 16, the chemical stability under temperature, temperature and humidity conditions, and light irradiation was evaluated. The proportion (%) of the analogous substance produced by an HPLC method and the change in appearance were evaluated.
About 10 mg of the crystal was accurately weighed in a 2 mL glass container with a polyethylene stopper. After the glass container was closed, the glass container was stored at 40° C. or 60° C. for 2 weeks, 1 month, 2 months, 3 months, or 6 months. A sample stored at 40° C. is referred to as a 40° C. hermetically sealed product, and a sample stored at 60° C. is referred to as a 60° C. hermetically sealed product. In a state where the glass container was opened, the glass container was stored at a relative humidity of 75±5% at 40° C. or a relative humidity of 89±5% for 2 weeks, 1 month, 2 months, 3 months or 6 months, or in the presence of silica gel at 40° C. for 1 month, 2 months, 3 months or 6 months. A sample stored at 40° C. and a relative humidity of 75±5% or 89±5% is referred to as a 40° C. and 75% relative humidity (also referred to as 40±2° C./75±5% RH) or 40° C. and 89% relative humidity (also referred to as 40±2° C./89% RH) stored product, and a sample stored in the presence of silica gel at 40° C. is referred to as a 40° C. stored product. The −40° C. hermetically sealed product was used as a standard product.
The amount of the analogous substance was measured by an area percentage method by the HPLC method under the following conditions.
HPLC Conditions 1 were used for the crystal and amorphous substance of the compound represented by Formula (I) obtained in Example 1, and HPLC conditions 2 were used for the crystal of the compound represented by Formula (II) obtained in Example 16.
• Detector: ultraviolet absorptiometer (measurement wavelength: 260 nm) • Column: YMC-Triart C18 ExRS, S-1.9 μm, 3.0×100 mm • Column temperature: constant temperature at near 40° C. • Mobile phase A: 0.1% formic acid aqueous solution • Mobile phase B: acetonitrile • Flow rate: about 0.6 mL/min • Injection amount: 3 μL • Sample cooler temperature: about 6° C. • Feed of mobile phase: The mixing ratio of mobile phase A and mobile phase B was changed as shown in Table 18 to control concentration gradient.
Column: Cortecs (2.7 μm 3.0×100 mm)
Column temperature: 40° C.
UV detection wavelength: 254 nm

[3] = Moisture adsorption/desorption isotherm measurement (DVS); details: 25° C.
Description: The moisture adsorption/desorption isotherm measurement is a measurement method for measuring the adsorption and desorption behavior of moisture by measuring a weight change in a solid as a measurement target under each relative humidity condition.
As a basic measurement method, based on the dry weight at 0% RH (relative humidity 0%), the relative humidity is increased every 5% or 10%, and after the weight is stabilized at each relative humidity, the amount of adsorbed water can be determined from the weight increase from the reference value. Similarly, the desorption amount of water can be measured by decreasing the relative humidity every 5% or 10% from 100% RH or 95% RH.
By plotting the value of the weight change at each relative humidity, an adsorption/desorption isotherm can be obtained.
Sorption and desorption of adhesion water and crystal water are affected by particle size, crystallinity, crystal habit, and the like, so that the measurement results may slightly change.
The crystals and amorphous substances obtained in each Example were weighed in an aluminum pan, and allowed to stand at 25° C. and a relative humidity of 0%. The measurement was started after the compound was sufficiently dried and the weight was stabilized, and the weight when the relative humidity changed from 0% to 95% by 5% was recorded. Next, the weight when the relative humidity changed from 95% to 0% by 5% was recorded.
Device: DVS Advantage manufactured by Surface Measurement Systems

With `Cc1ccc(-n2nc3c(c2NC(=O)CS(C)(=O)=O)C(=O)N[C@@]2(CCOc4cc(F)cc(F)c42)C3)nc1` [crystal of the compound represented by Formula (I) obtained ] the “impurities detected at a retention time of 17.527 minutes, increase with respect to standard product (in words)” value [1] was “increase in impurities could be greatly suppressed”, the “solid stability (in words)” value [2] was “excellent in solid stability under any conditions” and the “difference in water content between 0% RH and 95% RH” value ([3]; DVS) was “about 1.4%”. It also gave a Moisture adsorption amount ([3]; relative humidity 0.0%) of 0.000%, a Moisture desorption amount ([3]; relative humidity 0.0%) of 0.063% and a Moisture adsorption amount ([3]; relative humidity 5.0%) of 0.064%. The Moisture desorption amount ([3]; relative humidity 5.0%) was 0.153%, the Moisture adsorption amount ([3]; relative humidity 10.0%) was 0.115% and the Moisture desorption amount ([3]; relative humidity 10.0%) was 0.230%. It also gave a Moisture adsorption amount ([3]; relative humidity 15.0%) of 0.174%, a Moisture desorption amount ([3]; relative humidity 15.0%) of 0.316% and a Moisture adsorption amount ([3]; relative humidity 20.0%) of 0.234%. The Moisture desorption amount ([3]; relative humidity 20.0%) was 0.395%, the Moisture adsorption amount ([3]; relative humidity 25.0%) was 0.321% and the Moisture desorption amount ([3]; relative humidity 25.0%) was 0.509%. The Moisture adsorption amount ([3]; relative humidity 30.0%) was 0.449%, the Moisture desorption amount ([3]; relative humidity 30.0%) was 0.638% and the Moisture adsorption amount ([3]; relative humidity 35.0%) was 0.549%. For the same compound, the Moisture desorption amount ([3]; relative humidity 35.0%) was 0.740%, the Moisture adsorption amount ([3]; relative humidity 40.0%) was 0.639% and the Moisture desorption amount ([3]; relative humidity 40.0%) was 0.830%. For the same compound, the Moisture adsorption amount ([3]; relative humidity 45.0%) was 0.719%, the Moisture desorption amount ([3]; relative humidity 45.0%) was 0.917% and the Moisture adsorption amount ([3]; relative humidity 50.0%) was 0.798%. It also gave a Moisture desorption amount ([3]; relative humidity 50.0%) of 0.989%, a Moisture adsorption amount ([3]; relative humidity 55.0%) of 0.867% and a Moisture desorption amount ([3]; relative humidity 55.0%) of 1.052%. The Moisture adsorption amount ([3]; relative humidity 60.0%) was 0.925%, the Moisture desorption amount ([3]; relative humidity 60.0%) was 1.113% and the Moisture adsorption amount ([3]; relative humidity 65.0%) was 1.003%. For the same compound, the Moisture desorption amount ([3]; relative humidity 65.0%) was 1.179%, the Moisture adsorption amount ([3]; relative humidity 70.0%) was 1.070% and the Moisture desorption amount ([3]; relative humidity 70.0%) was 1.237%. It also gave a Moisture adsorption amount ([3]; relative humidity 75.0%) of 1.150%, a Moisture desorption amount ([3]; relative humidity 75.0%) of 1.288% and a Moisture adsorption amount ([3]; relative humidity 80.0%) of 1.196%. For the same compound, the Moisture desorption amount ([3]; relative humidity 80.0%) was 1.314%, the Moisture adsorption amount ([3]; relative humidity 85.0%) was 1.266% and the Moisture desorption amount ([3]; relative humidity 85.0%) was 1.369%. For the same compound, the Moisture adsorption amount ([3]; relative humidity 90.0%) was 1.350%, the Moisture desorption amount ([3]; relative humidity 90.0%) was 1.407% and the Moisture adsorption amount ([3]; relative humidity 95.0%) was 1.426%. For the same compound, the Moisture desorption amount ([3]; relative humidity 95.0%) was 1.426%.
